Read-outs that look alike come from different tables or passages of the source. Where no end group is shown, it is not given here.
Experiments:
spleen cell = assay: Interferon-γ production of spleen cells stimulated by Con A (double antibody sandwich ELISA); type: cell-based; settings: for Concentration of IFN-γ: Con A 0.5 μg/mL, 24 hours, n = 3; for Enhancement percentage: versus Con A alone
Protocol: Prepare spleen cell suspension in sterile condition. Adjust cell concentration to 5×10^6 cell/mL by adding RPMI-1640 culture with 20% bovine serum. Add 0.5 mL cell suspension, 0.25 mL Con A (final concentration is 0.5 μg/mL) and 0.25 mL samples with different concentrations in 24-well plate; and add RPMI-1640 culture in control wells. Incubate the plates in a 5% CO2 chamber at 37° C. for 24 hours. Centrifuge and collect supernatant, test the content of IFN-γ in supernatant by double antibody sandwich ELISA. The protocol is according to the instruction on ELISA kit.

[1] = Plasma concentration / pharmacokinetics in mouse (competitive ELISA); type: in vivo; settings: 300 μg per mouse, injected peritoneally, parameters in 24 h
Protocol: Coating antigen: Dilute Tα1 detection antigen stock solution to a final concentration of 2 μg/mL with coating solution, and add it into the wells of ELISA plate for 0.1 mL per well, and incubate at 4° C. for 5 days. Then wash the ELISA plate 3 times with washing buffer, each 0.2 mL/well and 3 min/time. Add 0.2 mL blocking buffer to each well, incubate for 1.5 hours at 37° C., wash plate 2 times by washing buffer, and spin dried.
Sample preparation: Weight sample accurately, dissolve it in saline to a concentration of 1.5 mg/mL. Administrate 0.2 Ml by injection to each mouse peritoneally. Collect blood sample in 3 min, 20 min, 40 min, 1 h, 2 h, 3 h, 6 h, 8 h, 12 h, and 24 h. Collect serum by centrifuge the blood samples for 5 minutes at 10000 rpm, stored at −20° C. in a freezer. o prepare test sample, […] was added by 0.1 mL 1:1500 rabbit anti-Tα1 serum (final concentration is 1:6000), and 0.2 mL CD-1® mouse serum, and […]. Prepare blank control at the same time. Total volume is 0.4 mL. Incubate for 2 hours at 37° C. To prepare standard sample, Tα1 0.1 mL with different concentrations from 0.0004 to 400 μg/mL was added by 0.1 mL 1:1500 rabbit anti-Tα1 serum (final concentration is 1:6000), and 0.2 mL CD-1® mouse serum. Prepare blank control at the same time. Total volume is 0.4 mL. Incubate for 2 hours at 37° C.
Sample Testing Add the prepared test sample and standard sample to ELISA plate, 0.1 mL/well, reacting for 1 hour in 37° C. chamber. Wash the plates 3 times, spin dryed. Add substrate 0.1 mL/well for 10 minutes. Add 2 mol/L H2SO4 0.05 mL to each well to terminate the reaction. Measure the OD value at 450 nm. Plot the standard curve with the concentration of Tα1 standard sample as abscissa and OD value as vertical coordinate. Calculate the content of test sample according to this standard curve.

[2] = Half-life in liver homogenate (HPLC); type: in vitro ADME; settings: 37° C., sample 0.4 mg/mL or 0.8 mg/mL; for half-life: read-out: t1/2 in liver homogenate (converted)
Protocol: Experimental method: Prepare 0.4 mg/mL or 0.8 mg/mL sample aqueous solution in centrifuge tube, adding 50 μL liver homogenate. Then incubate for different time in 37° C. water bath. Terminate the reaction and precipitate liver homogenate protein by heating the mixture in boiling water for 5 minutes. Centrifuge it (10000 rpm) for 10 minutes. Analyze the supernatant by HPLC. The data was statistically analyzed by Origin Prof. 5.0.
HPLC: Column temperature: 25° C.; Flow rate 1.0 mL/min; Detection wavelength: 200 nm; Mobile phase A: 0.1% TFA/H2O; Mobile phase B: 0.1% TFA/70% CH3CN.

[3] = system: T lymphocyte (spleen cell); assay: T lymphocyte proliferation stimulated by Con A (3H-TdR incorporation); type: cell-based, mouse; settings: for 3H-TdR incorporation (cpm, x ± SD): Con A 0.5 μg/mL, 72 hours, n = 4; for Enhancement percentage: versus Con A alone
Protocol: Sacrifice mouse by draining artery blood, remove spleen in sterile condition, and make it to spleen cell suspension. After red blood cell lysis, wash for 3 times, and stain with Trypan Blue to count the living cells. The amount of living cells should be more than 95%. Dilute the cell concentration to 5×10^6 cell/mL by adding RPMI-1640 culture with 10% bovine serum. Add spleen cell suspension to a sterilized 96-well plate for 100 μL per well. The total amount is 200 μL per well (including 50 μL Con A and 50 μL medicament). Each sample concentration is repeated fro 3-4 wells. Incubate the plate in a 5% CO2 chamber for 72 hours, add 10 μci/mL ^3H-TdR 20 μL per well 16 hours before termination of the incubation, giving rise to a final concentration of 1.0 μci (37.0 KBq)/mL. Collect cells on filter membrane by using Herveste 96 cell harvester, dried in 80° C. oven for 20 minutes or dried in air. Put the dried filter membrane into 1450-423 microBeta sample bag, add scintillation liquid, and measure radioactivity (cpm) in Perkin Elmer MicroBeta Trilux 1450 Scintillation Counter.

[4] = serum, ip, 300 ug/animal, n = 3, read-out: Cmax
[5] = serum, ip, 300 ug/animal, n = 3, read-out: Tmax

Ac-CSDAAVDTSSEITTKDLKEKKEVVEEAEN-OH [BMJBT008]
Concentration of IFN-γ (spleen cell; Table 1-3, sample 1 μg/mL): 4323.8 ± 187.0 pg/mL | Enhancement percentage (spleen cell; Table 1-3, sample 1 μg/mL): +41.6% | Concentration of IFN-γ (spleen cell; Table 1-3, sample 10 μg/mL): 3115.0 ± 195.8 pg/mL | Enhancement percentage (spleen cell; Table 1-3, sample 10 μg/mL): +2.0% | Concentration of IFN-γ (spleen cell; Table 1-3, sample 100 μg/mL): 2975.5 ± 182.6 pg/mL | Enhancement percentage (spleen cell; Table 1-3, sample 100 μg/mL): −2.6% | AUC ([1]; n = 3): 1210 ng·h/mL | Cmax [1, 4]: 430 ng/mL | Tmax [1, 5]: 0.333 h | half-life [2]: < 1 h

Ac-SDAAVDTSSEITTKDLKEKKEVVCEAEN-OH [BMJBT007]
AUC ([1]; n = 3): 17900 ng·h/mL | Cmax [1, 4]: 5990 ng/mL | Tmax [1, 5]: 0.333 h | half-life [2]: 0.5 h

Ac-[Cys^5(mPEG5000-MAL)]Tα1 (Ac-SDAAC(mPEG5000‑maleimide)DTSSEITTKDLKEKKEVVEEAEN; UniProt P06454 2-29, looked up, variant V5C) [BMJB005]
t1/2 in liver homogenate [2]: 250.0 h

Ac-[Cys^8(mPEG5000-MAL)]Tα1 (Ac-SDAAVDTC(mPEG5000‑maleimide)SEITTKDLKEKKEVVEEAEN; UniProt P06454 2-29, looked up, variant S8C) [BMJB008]
t1/2 in liver homogenate [2]: 65.2 h

Ac-[Cys^16(mPEG5000-MAL)]Tα1 (Ac-SDAAVDTSSEITTKDC(mPEG5000‑maleimide)KEKKEVVEEAEN; UniProt P06454 2-29, looked up, variant L16C) [BMJB016]
Concentration of IFN-γ (spleen cell; Table 1-1, sample 1 μg/mL): 1426.8 ± 36.8 pg/mL | Enhancement percentage (spleen cell; Table 1-1, sample 1 μg/mL): +89.8% | Concentration of IFN-γ (spleen cell; Table 1-1, sample 10 μg/mL): 1295.7 ± 165.9 pg/mL | Enhancement percentage (spleen cell; Table 1-1, sample 10 μg/mL): +72.4% | Concentration of IFN-γ (spleen cell; Table 1-1, sample 100 μg/mL): 455.5 ± 79.3**↓ pg/mL | Enhancement percentage (spleen cell; Table 1-1, sample 100 μg/mL): −39.4% | AUC ([1]; n = 3): 120000 ng·h/mL | Cmax ([1]; n = 3): 6289 ng/mL | Tmax ([1]; n = 3): 6.000 h | 3H-TdR incorporation (cpm, x ± SD) ([3]; Table 2-1, sample 10 μg/mL): 21697 ± 3489 cpm | Enhancement percentage ([3]; Table 2-1, sample 10 μg/mL): +60.9% | 3H-TdR incorporation (cpm, x ± SD) ([3]; Table 2-1, sample 50 μg/mL): 22584 ± 1463 cpm | Enhancement percentage ([3]; Table 2-1, sample 50 μg/mL): +67.4% | 3H-TdR incorporation (cpm, x ± SD) ([3]; Table 2-1, sample 100 μg/mL): 20708 ± 1211 cpm | Enhancement percentage ([3]; Table 2-1, sample 100 μg/mL): +53.5%

Ac-[Cys^17(mPEG5000-MAL)]Tα1 (Ac-SDAAVDTSSEITTKDLC(mPEG5000‑maleimide)EKKEVVEEAEN; UniProt P06454 2-29, looked up, variant K17C) [BMJB017]
Concentration of IFN-γ (spleen cell; Table 1-1, sample 1 μg/mL): 1048.9 ± 181.4 pg/mL | Enhancement percentage (spleen cell; Table 1-1, sample 1 μg/mL): +39.5% | Concentration of IFN-γ (spleen cell; Table 1-1, sample 10 μg/mL): 856.4 ± 61.8 pg/mL | Enhancement percentage (spleen cell; Table 1-1, sample 10 μg/mL): +13.9% | Concentration of IFN-γ (spleen cell; Table 1-1, sample 100 μg/mL): 474.7 ± 10.2**↓ pg/mL | Enhancement percentage (spleen cell; Table 1-1, sample 100 μg/mL): −36.9% | AUC ([1]; n = 3): 83500 ng·h/mL | Cmax ([1]; n = 3): 11980 ng/mL | Tmax ([1]; n = 3): 1.000 h | 3H-TdR incorporation (cpm, x ± SD) ([3]; Table 2-1, sample 10 μg/mL): 18919 ± 3507 cpm | Enhancement percentage ([3]; Table 2-1, sample 10 μg/mL): +40.3% | 3H-TdR incorporation (cpm, x ± SD) ([3]; Table 2-1, sample 50 μg/mL): 21091 ± 3916 cpm | Enhancement percentage ([3]; Table 2-1, sample 50 μg/mL): +56.4% | 3H-TdR incorporation (cpm, x ± SD) ([3]; Table 2-1, sample 100 μg/mL): 16778 ± 2483 cpm | Enhancement percentage ([3]; Table 2-1, sample 100 μg/mL): +24.4%

BMJB012: PEG modification of Tα1, listed after BMJBT001 in Tables 1-2 and 2-2 (SDAAVDTSSEITTKDLKEKKEVVEEAEN; not fully specified; ends and bridges not checked; also: PEG conjugate, site not given here; UniProt P06454 2-29, looked up)
Concentration of IFN-γ (spleen cell; Table 1-2, sample 1 μg/mL): 4224.7 ± 183.1 pg/mL | Enhancement percentage (spleen cell; Table 1-2, sample 1 μg/mL): +29.7% | Concentration of IFN-γ (spleen cell; Table 1-2, sample 10 μg/mL): 3115.3 ± 377.1 pg/mL | Enhancement percentage (spleen cell; Table 1-2, sample 10 μg/mL): −4.4% | Concentration of IFN-γ (spleen cell; Table 1-2, sample 100 μg/mL): 3277.7 ± 181.0 pg/mL | Enhancement percentage (spleen cell; Table 1-2, sample 100 μg/mL): +0.6% | AUC ([1]; n = 3): 8150 ng·h/mL | Cmax ([1]; n = 3): 348 ng/mL | Tmax ([1]; n = 3): 12.000 h | 3H-TdR incorporation (cpm, x ± SD) ([3]; Table 2-2, sample 10 μg/mL): 22772 ± 3222 cpm | Enhancement percentage ([3]; Table 2-2, sample 10 μg/mL): +95.6% | 3H-TdR incorporation (cpm, x ± SD) ([3]; Table 2-2, sample 50 μg/mL): 24066 ± 4004 cpm | Enhancement percentage ([3]; Table 2-2, sample 50 μg/mL): +106.7% | 3H-TdR incorporation (cpm, x ± SD) ([3]; Table 2-2, sample 100 μg/mL): 25176 ± 3656 cpm | Enhancement percentage ([3]; Table 2-2, sample 100 μg/mL): +116.3%

BMJB015: PEG modification of Tα1, listed after BMJBT004 in Table 1-2 (SDAAVDTSSEITTKDLKEKKEVVEEAEN; ends and bridges not checked; also: PEG conjugate, site not given here; UniProt P06454 2-29, looked up)
Concentration of IFN-γ (spleen cell; Table 1-2, sample 1 μg/mL): 3908.2 ± 147.2 pg/mL | Enhancement percentage (spleen cell; Table 1-2, sample 1 μg/mL): +20.0% | Concentration of IFN-γ (spleen cell; Table 1-2, sample 10 μg/mL): 3962.9 ± 137.6 pg/mL | Enhancement percentage (spleen cell; Table 1-2, sample 10 μg/mL): +21.6% | Concentration of IFN-γ (spleen cell; Table 1-2, sample 100 μg/mL): 3526.2 ± 68.0 pg/mL | Enhancement percentage (spleen cell; Table 1-2, sample 100 μg/mL): +8.2% | AUC ([1]; n = 3): 106000 ng·h/mL | Cmax ([1]; n = 3): 5082 ng/mL | Tmax ([1]; n = 3): 3.000 h

BMJB020: PEG modification of Tα1 (SDAAVDTSSEITTKDLKEKKEVVEEAEN; ends and bridges not checked; also: PEG conjugate, site not given here; UniProt P06454 2-29, looked up)
Concentration of IFN-γ (spleen cell; Table 1-3, sample 1 μg/mL): 3998.3 ± 157.7 pg/mL | Enhancement percentage (spleen cell; Table 1-3, sample 1 μg/mL): +30.9% | Concentration of IFN-γ (spleen cell; Table 1-3, sample 10 μg/mL): 2654.0 ± 211.1 pg/mL | Enhancement percentage (spleen cell; Table 1-3, sample 10 μg/mL): −13.1% | Concentration of IFN-γ (spleen cell; Table 1-3, sample 100 μg/mL): 3135.8 ± 195.4 pg/mL | Enhancement percentage (spleen cell; Table 1-3, sample 100 μg/mL): +2.7% | AUC ([1]; n = 3): 4080 ng·h/mL | Cmax ([1]; n = 3): 172 ng/mL | Tmax ([1]; n = 3): 12.000 h

Source: US8080522B2, “Polyethlene glycol modifications of thymosin alpha-1” (Institute of Pharmacology and Toxicology Academy of …, priority 2005, dated 2011)
